Measured values taken from ChEMBL document CHEMBL3232804, “Synthesis and evaluation of new diaryl ether and quinoline hybrids as potential antiplasmodial and antimicrobial agents” (Bioorg Med Chem Lett, 2014).
≈ marks a conversion by molar mass, not a printed value.

Assays:
Plasmodium falciparum [1] = assay: Antiplasmodial activity against chloroquine-sensitive Plasmodium falciparum 3D7 infected after 72 hrs by Malaria SYBR Green I-staining based fluorescence assay; assay type: functional, organism-based; conditions: 3D7, 72 h
Plasmodium falciparum [2] = assay: Antiplasmodial activity against chloroquine-resistant Plasmodium falciparum K1 infected after 72 hrs by Malaria SYBR Green I-staining based fluorescence assay; assay type: functional, organism-based; conditions: K1, 72 h
[3] = Selectivity index, ratio of IC50 for african green monkey Vero cells to IC50 for chloroquine-sensitive Plasmodium falciparum 3D7; assay type: toxicity, cell-based; conditions: read-out: Ratio IC50
Escherichia coli = assay: Antimicrobial activity against Escherichia coli ATCC 9637 after 24 hrs by standard broth microdilution method; assay type: functional
Pseudomonas aeruginosa = assay: Antimicrobial activity against Pseudomonas aeruginosa ATCC BAA-427 after 24 hrs by standard broth microdilution method; assay type: functional
Staphylococcus aureus = assay: Antimicrobial activity against Staphylococcus aureus ATCC 25923 after 24 hrs by standard broth microdilution method; assay type: functional
Klebsiella pneumoniae = assay: Antimicrobial activity against Klebsiella pneumoniae ATCC 27736 after 24 hrs by standard broth microdilution method; assay type: functional
Candida albicans = assay: Antifungal activity against Candida albicans clinical isolate after 24 to 48 hrs by standard broth microdilution method; assay type: functional
Cryptococcus neoformans = assay: Antifungal activity against Cryptococcus neoformans clinical isolate after 24 to 48 hrs by standard broth microdilution method; assay type: functional
Sporothrix schenckii = assay: Antifungal activity against Sporothrix schenckii clinical isolate after 72 to 96 hrs by standard broth microdilution method; assay type: functional
[4] = test system: Trichophyton mentagrophytes; assay: Antifungal activity against Trichophyton mentagrophytes clinical isolate after 72 to 96 hrs by standard broth microdilution method; assay type: functional
Aspergillus fumigatus = assay: Antifungal activity against Aspergillus fumigatus clinical isolate after 72 to 96 hrs by standard broth microdilution method; assay type: functional
Candida parapsilosis = assay: Antifungal activity against Candida parapsilosis ATCC […] after 72 to 96 hrs by standard broth microdilution method; assay type: functional; conditions: Lodderomyces parapsilosis

Compound	IC50 (Plasmodium falciparum [1])	IC50 (Plasmodium falciparum [2])	selectivity ratio [3]	MIC (Escherichia coli; ATCC 9637, 24 h)	MIC (Pseudomonas aeruginosa; ATCC BAA-427, 24 h)	MIC (Staphylococcus aureus; ATCC 25923, 24 h)	MIC (Klebsiella pneumoniae; ATCC 27736, 24 h)	MIC (Candida albicans)	MIC (Cryptococcus neoformans)	MIC (Sporothrix schenckii)	MIC [4]	MIC (Aspergillus fumigatus)	MIC (Candida parapsilosis)	MIC (Escherichia coli)	MIC (Pseudomonas aeruginosa)	MIC (Staphylococcus aureus)	MIC (Klebsiella pneumoniae)
Clc1ccc(Cl)c(Oc2ccccc2N/C(=N/c2ccccc2)NCCCCNc2ccnc3cc(Cl)ccc23)c1	194 nM	94 nM	43.5	25 µg/mL (≈ 41.3 µM)	> 50 µg/mL	12.5 µg/mL (≈ 20.7 µM)	> 50 µg/mL	50 µg/mL (≈ 82.6 µM)	> 50 µg/mL	25 µg/mL (≈ 41.3 µM)	50 µg/mL (≈ 82.6 µM)	> 50 µg/mL	> 50 µg/mL				
COc1ccc(Oc2ccc(N/C(=N/c3cccc(Cl)c3)NCCNc3ccnc4cc(Cl)ccc34)cc2)cc1	88.7 nM	83.3 nM	91.3	12.5 µg/mL (≈ 21.8 µM)	> 50 µg/mL	12.5 µg/mL (≈ 21.8 µM)	12.5 µg/mL (≈ 21.8 µM)	25 µg/mL (≈ 43.7 µM)	> 50 µg/mL	12.5 µg/mL (≈ 21.8 µM)	12.5 µg/mL (≈ 21.8 µM)	> 50 µg/mL	> 50 µg/mL				
COc1ccc(Oc2ccc(N/C(=N/c3ccccc3)NCCCCNc3ccnc4cc(Cl)ccc34)cc2)cc1	86 nM	92.1 nM	49	50 µg/mL (≈ 88.3 µM)	> 50 µg/mL	6.25 µg/mL (≈ 11 µM)	25 µg/mL (≈ 44.2 µM)	12.5 µg/mL (≈ 22.1 µM)	25 µg/mL (≈ 44.2 µM)	12.5 µg/mL (≈ 22.1 µM)	12.5 µg/mL (≈ 22.1 µM)	25 µg/mL (≈ 44.2 µM)	12.5 µg/mL (≈ 22.1 µM)				
COC(=O)/C(C)=C/c1ccc(Oc2ccc(N/C(=N/c3cccc(Cl)c3)NCCCCNc3ccnc4cc(Cl)ccc34)cc2)cc1	51.9 nM	66.8 nM	47.9	12.5 µg/mL (≈ 18.7 µM)	> 50 µg/mL	3.12 µg/mL (≈ 4.67 µM)	50 µg/mL (≈ 74.8 µM)	> 50 µg/mL	> 50 µg/mL	50 µg/mL (≈ 74.8 µM)	50 µg/mL (≈ 74.8 µM)	> 50 µg/mL	> 50 µg/mL				
Clc1ccc(/N=C(\NCCNc2ccnc3cc(Cl)ccc23)Nc2ccc(Oc3cc(Cl)ccc3Cl)cc2)cc1	44 nM	54.1 nM	189	6.25 µg/mL (≈ 10.2 µM)	> 50 µg/mL	25 µg/mL (≈ 40.9 µM)	> 50 µg/mL	6.25 µg/mL (≈ 10.2 µM)	6.25 µg/mL (≈ 10.2 µM)	3.12 µg/mL (≈ 5.1 µM)	6.25 µg/mL (≈ 10.2 µM)	6.25 µg/mL (≈ 10.2 µM)	12.5 µg/mL (≈ 20.4 µM)				
COc1ccc(Oc2ccccc2N/C(=N/c2ccc(Cl)cc2)NCCCCNc2ccnc3cc(Cl)ccc23)cc1	124 nM	> 800 nM	62.8	> 50 µg/mL	> 50 µg/mL	50 µg/mL (≈ 83.3 µM)	> 50 µg/mL	50 µg/mL (≈ 83.3 µM)	50 µg/mL (≈ 83.3 µM)	25 µg/mL (≈ 41.6 µM)							
Clc1ccc(/N=C(\NCCCNc2ccnc3cc(Cl)ccc23)Nc2ccc(Oc3cc(Cl)ccc3Cl)cc2)cc1	> 800 nM	> 800 nM		> 50 µg/mL	> 50 µg/mL	> 50 µg/mL	> 50 µg/mL	> 50 µg/mL	> 50 µg/mL	50 µg/mL (≈ 80 µM)	50 µg/mL (≈ 80 µM)	> 50 µg/mL	> 50 µg/mL				
COC(=O)/C(C)=C/c1ccc(Oc2ccccc2N/C(=N/c2cccc(Cl)c2)NCc2ccccc2)cc1	> 800 nM	> 1200 nM		> 50 µg/mL	> 50 µg/mL	> 50 µg/mL	12.5 µg/mL (≈ 23.8 µM)	> 50 µg/mL	> 50 µg/mL	> 50 µg/mL	> 50 µg/mL	> 50 µg/mL	> 50 µg/mL				
OC(Cn1cncn1)(Cn1cncn1)c1ccc(F)cc1F [FLUCONAZOLE]								0.5 µg/mL (≈ 1.63 µM)	1 µg/mL (≈ 3.27 µM)	2 µg/mL (≈ 6.53 µM)	1 µg/mL (≈ 3.27 µM)	2 µg/mL (≈ 6.53 µM)	1 µg/mL (≈ 3.27 µM)				
COc1ccc(Oc2ccccc2N/C(=N/c2ccccc2)NCCNc2ccnc3cc(Cl)ccc23)cc1	42 nM	193 nM		> 50 µg/mL	> 50 µg/mL	50 µg/mL (≈ 92.9 µM)	> 50 µg/mL	> 50 µg/mL	> 50 µg/mL	50 µg/mL (≈ 92.9 µM)	> 50 µg/mL	> 50 µg/mL	> 50 µg/mL				
COc1ccc(Oc2ccccc2N/C(=N/c2cccc(Cl)c2)NCCCNc2ccnc3cc(Cl)ccc23)cc1	369 nM		10.4	3.12 µg/mL (≈ 5.32 µM)	> 50 µg/mL	3.12 µg/mL (≈ 5.32 µM)	25 µg/mL (≈ 42.6 µM)	6.25 µg/mL (≈ 10.7 µM)	50 µg/mL (≈ 85.2 µM)	6.25 µg/mL (≈ 10.7 µM)	6.25 µg/mL (≈ 10.7 µM)	> 50 µg/mL	50 µg/mL (≈ 85.2 µM)				
CCn1cc(C(=O)O)c(=O)c2cc(F)c(N3CCNCC3)cc21 [NORFLOXACIN]				0.36 µg/mL (≈ 1.13 µM)	0.3 µg/mL (≈ 0.939 µM)	0.78 µg/mL (≈ 2.44 µM)	0.36 µg/mL (≈ 1.13 µM)										
C[C@@H]1[C@H](O)[C@@H](C)/C=C/C=C/C=C/C=C/C=C/C=C/C=C/[C@H](O[C@@H]2O[C@H](C)[C@@H](O)[C@H](N)[C@@H]2O)C[C@@H]2O[C@](O)(C[C@@H](O)C[C@@H](O)[C@H](O)CC[C@@H](O)C[C@@H](O)CC(=O)O[C@H]1C)C[C@H](O)[C@H]2C(=O)O [AMPHOTERICIN B]								0.12 µg/mL (≈ 0.13 µM)	0.06 µg/mL (≈ 0.0649 µM)	0.12 µg/mL (≈ 0.13 µM)	0.12 µg/mL (≈ 0.13 µM)	0.5 µg/mL (≈ 0.541 µM)	0.12 µg/mL (≈ 0.13 µM)				
COC(=O)/C(C)=C/c1ccc(Oc2ccccc2N/C(=N/c2ccccc2)NC2CC2)cc1	> 1200 nM	> 1200 nM		> 50 µg/mL	> 50 µg/mL	> 50 µg/mL	12.5 µg/mL (≈ 28.3 µM)	> 50 µg/mL	> 50 µg/mL	> 50 µg/mL	> 50 µg/mL	> 50 µg/mL	> 50 µg/mL				
CN[C@H](CC(C)C)C(=O)N[C@H]1C(=O)N[C@@H](CC(N)=O)C(=O)N[C@H]2C(=O)N[C@H]3C(=O)N[C@H](C(=O)N[C@H](C(=O)O)c4cc(O)cc(O)c4-c4cc3ccc4O)[C@H](O)c3ccc(c(Cl)c3)Oc3cc2cc(c3O[C@@H]2O[C@H](CO)[C@@H](O)[C@H](O)[C@H]2O[C@H]2C[C@](C)(N)[C@H](O)[C@H](C)O2)Oc2ccc(cc2Cl)[C@H]1O [VANCOMYCIN]				> 50 µg/mL	> 50 µg/mL	0.78 µg/mL (≈ 0.538 µM)	> 50 µg/mL										
COC(=O)/C(C)=C/c1ccc(Oc2ccccc2N/C(=N/c2ccccc2)NCc2ccccc2)cc1	> 1200 nM	> 1200 nM		> 50 µg/mL	> 50 µg/mL	25 µg/mL (≈ 50.9 µM)	12.5 µg/mL (≈ 25.4 µM)	> 50 µg/mL	> 50 µg/mL	> 50 µg/mL	> 50 µg/mL	> 50 µg/mL	> 50 µg/mL				
COc1ccc(Oc2ccccc2N/C(=N/c2ccc(Cl)cc2)NCCCNc2ccnc3cc(Cl)ccc23)cc1	241 nM	> 800 nM	123	> 50 µg/mL	50 µg/mL (≈ 85.2 µM)	> 50 µg/mL	50 µg/mL (≈ 85.2 µM)	> 50 µg/mL	50 µg/mL (≈ 85.2 µM)	25 µg/mL (≈ 42.6 µM)							
COC(=O)/C(C)=C/c1ccc(Oc2ccccc2N/C(=N/c2ccccc2)NCCNc2ccnc3cc(Cl)ccc23)cc1	> 800 nM	168 nM		> 50 µg/mL	> 50 µg/mL	> 50 µg/mL	> 50 µg/mL	> 50 µg/mL	> 50 µg/mL	> 50 µg/mL	> 50 µg/mL	> 50 µg/mL	> 50 µg/mL				
COc1ccc(Oc2ccccc2N/C(=N/c2ccccc2)NCCCNc2ccnc3cc(Cl)ccc23)cc1	120 nM			50 µg/mL (≈ 90.6 µM)	> 50 µg/mL	50 µg/mL (≈ 90.6 µM)	> 50 µg/mL	50 µg/mL (≈ 90.6 µM)	> 50 µg/mL	50 µg/mL (≈ 90.6 µM)	> 50 µg/mL	50 µg/mL (≈ 90.6 µM)	50 µg/mL (≈ 90.6 µM)				
GENTAMICIN SULFATE														1.56 µg/mL	0.39 µg/mL	1.56 µg/mL	1.56 µg/mL
COc1ccc(Oc2ccccc2N/C(=N/c2ccc(Cl)cc2)NCCNc2ccnc3cc(Cl)ccc23)cc1	103 nM	329 nM	172	50 µg/mL (≈ 87.3 µM)	> 50 µg/mL	12.5 µg/mL (≈ 21.8 µM)	> 50 µg/mL	50 µg/mL (≈ 87.3 µM)	25 µg/mL (≈ 43.7 µM)	12.5 µg/mL (≈ 21.8 µM)							
COC(=O)/C(C)=C/c1ccc(Oc2ccccc2N/C(=N/c2cccc(Cl)c2)NC2CC2)cc1	> 1200 nM	> 1200 nM		> 50 µg/mL	> 50 µg/mL	25 µg/mL (≈ 52.5 µM)	12.5 µg/mL (≈ 26.3 µM)	50 µg/mL (≈ 105 µM)	> 50 µg/mL	> 50 µg/mL	25 µg/mL (≈ 52.5 µM)	> 50 µg/mL	> 50 µg/mL				
COc1ccc(Oc2ccc(N/C(=N/c3ccccc3)NCCNc3ccnc4cc(Cl)ccc34)cc2)cc1	> 900 nM	635 nM		6.25 µg/mL (≈ 11.6 µM)	> 50 µg/mL	6.25 µg/mL (≈ 11.6 µM)	12.5 µg/mL (≈ 23.2 µM)	25 µg/mL (≈ 46.5 µM)	50 µg/mL (≈ 92.9 µM)	12.5 µg/mL (≈ 23.2 µM)	12.5 µg/mL (≈ 23.2 µM)	25 µg/mL (≈ 46.5 µM)	25 µg/mL (≈ 46.5 µM)				
COc1cccc(OC)c1C(=O)N[C@@H]1C(=O)N2[C@@H]1SC(C)(C)[C@@H]2C(=O)O [METHICILLIN]				> 50 µg/mL	> 50 µg/mL	1.56 µg/mL (≈ 4.1 µM)	> 50 µg/mL										
COc1ccc(Oc2ccccc2N/C(=N/c2ccccc2)NCCCCNc2ccnc3cc(Cl)ccc23)cc1	109 nM	> 1000 nM		> 50 µg/mL	> 50 µg/mL	> 50 µg/mL	> 50 µg/mL	> 50 µg/mL	> 50 µg/mL	50 µg/mL (≈ 88.3 µM)	> 50 µg/mL	50 µg/mL (≈ 88.3 µM)	> 50 µg/mL				
